# Calls of active or inactive are those of the source. The rule behind the calls is not given here.
# Tests used:
# [1] = system: MCF7; test: Antimigratory activity in human MCF7 cells assessed as downregulation of MMP-2 level at 4 uM in presence of 1:1 of compound:Olaparib by DAPI staining based immunofluorescence analysis; assay type: functional, cell-based
# [2] = system: MCF7; test: Antimigratory activity in human MCF7 cells assessed as upregulation of E-cadherin level at 4 uM incubated for 2 days in presence of 1:1 of compound:Olaparib by immunoblot analysis; assay type: functional, cell-based; details: time 2.0 day
# [3] = molecular target: Vascular endothelial growth factor receptor 1 (Homo sapiens, UniProt P17948); test: Inhibition of VEGFR1 phosphorylation at tyr1333 residue in human MDA-MB-231 cells xenografted in BALB/c nude mouse at 25 to 50 mg/kg, po for 14 days in presence of 1:1 of compound:Olaparib by Western blot analysis; assay type: organism-based; details: dose 25-50 mg/kg, time 14.0 day
# [4] = system: MCF7; test: Induction of HR DNA repair in human MCF7 cells assessed as decrease in RAD51 level at 4 uM incubated for 48 hrs in presence of 1:1 of compound:Olaparib by DAPI staining based immunofluorescence analysis; assay type: functional, cell-based
# [5] = system: MCF7; test: Induction of cell cycle arrest at S phase in human MCF7 cells at 4 uM by Annexin-V-FLUOS staining based flow cytometry; assay type: functional
# [6] = system: MDA-MB-231; test: Antimigratory activity in human MDA-MB-231 cells xenografted in lungs of BALB/c nude mouse assessed as increase in E-cadherin level in lungs at 50 mg/kg administered once a day measured after 14 days in presence of 1:1 of compound:Olaparib by IHC analysis; assay type: functional, organism-based; details: time 14.0 day
# [7] = system: MDA-MB-231; test: Antimigratory activity in human MDA-MB-231 cells xenografted in BALB/c nude mouse assessed as downregulation of MMP2 level at 50 mg/kg, po for 14 days in presence of 1:1 of compound:Olaparib by H and E staining based IHC analysis; assay type: functional, organism-based; details: time 14.0 day
# [8] = system: MCF7; test: Antiproliferative activity against human MCF7 cells assessed as cell growth inhibition
# [9] = system: MDA-MB-231; test: Induction of cell cycle arrest at G2/M phase in human MDA-MB-231 cells at 4 uM in presence of 1:1 of compound:Olaparib by Annexin-V-FLUOS staining based flow cytometry; assay type: functional
# [10] = system: MDA-MB-231; test: Downregulation of PAR expression in human MDA-MB-231 cells xenografted in BALB/c nude mouse at 25 to 50 mg/kg, po for 14 days in presence of 1:1 of compound:Olaparib by Western blot analysis; assay type: functional, organism-based; details: dose 25-50 mg/kg, time 14.0 day
# [11] = system: MDA-MB-231; test: Antimigratory activity in human MDA-MB-231 cells xenografted in lungs of BALB/c nude mouse assessed as decrease in MMP2 level in lungs at 50 mg/kg administered once a day measured after 14 days in presence of 1:1 of compound:Olaparib by IHC analysis; assay type: functional, organism-based; details: time 14.0 day
# [12] = system: MDA-MB-231; test: Antimigratory activity in human MDA-MB-231 cells assessed as upregulation of E-cadherin level at 4 uM by DAPI staining based immunofluorescence analysis; assay type: functional, cell-based
# [13] = system: MCF7; test: Antimigratory activity against human MCF7 cells at 4 uM incubated for 1 hr in presence of 1:1 of compound:Olaparib by wound healing assay; assay type: functional, cell-based
# [14] = system: MDA-MB-231; test: Induction of DNA damage in human MDA-MB-231 cells assessed as increase in gamma-H2AX level at 4 uM incubated for 48 hrs by DAPI staining based immunofluorescence analysis; assay type: functional, cell-based
# [15] = system: MDA-MB-231; test: Downregulation of Olaparib-induced PAR expression in human MDA-MB-231 cells at 4 uM incubated for 2 days by Western blot analysis; assay type: functional, cell-based; details: time 2.0 day
# [16] = system: MCF7; test: cells; details: Homo sapiens
# [17] = system: MDA-MB-436; test: Antiproliferative activity against human MDA-MB-436 cells assessed as cell growth inhibition
# [18] = system: MDA-MB-231; test: Induction of cell cycle arrest at S phase in human MDA-MB-231 cells at 4 uM by Annexin-V-FLUOS staining based flow cytometry; assay type: functional
# [19] = system: MCF7; test: Antimigratory activity in human MCF7 cells assessed as downregulation of MMP-2 level at 4 uM incubated for 2 days in presence of 1:1 of compound:Olaparib by immunoblot analysis; assay type: functional, cell-based; details: time 2.0 day
# [20] = system: MCF7; test: Induction of HR DNA repair in human MCF7 cells assessed as decrease in RAD51 level at 4 uM incubated for 48 hrs by DAPI staining based immunofluorescence analysis; assay type: functional, cell-based
# [21] = system: MDA-MB-231; test: Induction of HR DNA repair in human MDA-MB-231 cells assessed as decrease in RAD51 level at 4 uM incubated for 48 hrs in presence of 1:1 of compound:Olaparib by DAPI staining based immunofluorescence analysis; assay type: functional, cell-based
# [22] = system: MDA-MB-231; test: Induction of HR DNA repair in human MDA-MB-231 cells xenografted in BALB/c nude mouse assessed as decrease in RAD51 level at 50 mg/kg, po for 14 days in presence of 1:1 of compound:Olaparib by H and E staining based IHC analysis; assay type: functional, organism-based; details: time 14.0 day
# [23] = system: MDA-MB-231; test: Inhibition of colony formation in human MDA-MB-231 cells at 4 uM incubated for 10 days in presence of 1:1 of compound:Olaparib by crystal violet staining based assay; assay type: functional, cell-based; details: time 10.0 day
# [24] = system: MDA-MB-231; test: cells; details: Homo sapiens
# [25] = system: MCF7; test: Antiproliferation activity against human MCF7 cells assessed as decrease in Ki67 expression at 4 uM incubated for 48 hrs in presence of 1:1 of compound:Olaparib by immunofluorescence analysis; assay type: functional, cell-based
# [26] = system: MCF7; test: Downregulation of Olaparib-induced PAR expression in human MCF7 cells at 4 uM incubated for 2 days by Western blot analysis; assay type: functional, cell-based; details: time 2.0 day
# [27] = system: MCF7; test: Antimigratory activity in human MCF7 cells assessed as downregulation of MMP-2 level at 4 uM incubated for 2 days by immunoblot analysis; assay type: functional, cell-based; details: time 2.0 day
# [28] = molecular target: T1, Vascular endothelial growth factor receptor 2 (Homo sapiens, UniProt P35968); details: MDA-MB-231, dose 25-50 mg/kg, route po, time 14.0 day
# [29] = system: MDA-MB-231; test: Induction of apoptosis in human MDA-MB-231 cells assessed as increase in cleaved caspase-3 level at 4 uM incubated for 2 days in presence of 1:1 of compound:Olaparib by immunoblot analysis; assay type: functional, cell-based; details: time 2.0 day
# [30] = molecular target: T1, Vascular endothelial growth factor receptor 2; details: MDA-MB-231, dose 50.0 mg/kg, route po, time 14.0 day
# [31] = system: MDA-MB-231; test: Induction of HR DNA repair in human MDA-MB-231 cells xenografted in BALB/c nude mouse assessed as decrease in BRCA1 level at 50 mg/kg, po for 14 days in presence of 1:1 of compound:Olaparib by Western blot analysis; assay type: functional, organism-based; details: time 14.0 day
# [32] = system: MDA-MB-231; test: Induction of HR DNA repair in human MDA-MB-231 cells assessed as decrease in RAD51 level at 4 uM incubated for 48 hrs by DAPI staining based immunofluorescence analysis; assay type: functional, cell-based
# [33] = system: MDA-MB-231; test: Induction of DNA damage in human MDA-MB-231 cells xenografted in BALB/c nude mouse assessed as increase in gamma-H2AX level at 50 mg/kg, po for 14 days in presence of 1:1 of compound:Olaparib by H and E staining based IHC analysis; assay type: functional, organism-based; details: time 14.0 day
# T1 sequence (P35968 whole entry): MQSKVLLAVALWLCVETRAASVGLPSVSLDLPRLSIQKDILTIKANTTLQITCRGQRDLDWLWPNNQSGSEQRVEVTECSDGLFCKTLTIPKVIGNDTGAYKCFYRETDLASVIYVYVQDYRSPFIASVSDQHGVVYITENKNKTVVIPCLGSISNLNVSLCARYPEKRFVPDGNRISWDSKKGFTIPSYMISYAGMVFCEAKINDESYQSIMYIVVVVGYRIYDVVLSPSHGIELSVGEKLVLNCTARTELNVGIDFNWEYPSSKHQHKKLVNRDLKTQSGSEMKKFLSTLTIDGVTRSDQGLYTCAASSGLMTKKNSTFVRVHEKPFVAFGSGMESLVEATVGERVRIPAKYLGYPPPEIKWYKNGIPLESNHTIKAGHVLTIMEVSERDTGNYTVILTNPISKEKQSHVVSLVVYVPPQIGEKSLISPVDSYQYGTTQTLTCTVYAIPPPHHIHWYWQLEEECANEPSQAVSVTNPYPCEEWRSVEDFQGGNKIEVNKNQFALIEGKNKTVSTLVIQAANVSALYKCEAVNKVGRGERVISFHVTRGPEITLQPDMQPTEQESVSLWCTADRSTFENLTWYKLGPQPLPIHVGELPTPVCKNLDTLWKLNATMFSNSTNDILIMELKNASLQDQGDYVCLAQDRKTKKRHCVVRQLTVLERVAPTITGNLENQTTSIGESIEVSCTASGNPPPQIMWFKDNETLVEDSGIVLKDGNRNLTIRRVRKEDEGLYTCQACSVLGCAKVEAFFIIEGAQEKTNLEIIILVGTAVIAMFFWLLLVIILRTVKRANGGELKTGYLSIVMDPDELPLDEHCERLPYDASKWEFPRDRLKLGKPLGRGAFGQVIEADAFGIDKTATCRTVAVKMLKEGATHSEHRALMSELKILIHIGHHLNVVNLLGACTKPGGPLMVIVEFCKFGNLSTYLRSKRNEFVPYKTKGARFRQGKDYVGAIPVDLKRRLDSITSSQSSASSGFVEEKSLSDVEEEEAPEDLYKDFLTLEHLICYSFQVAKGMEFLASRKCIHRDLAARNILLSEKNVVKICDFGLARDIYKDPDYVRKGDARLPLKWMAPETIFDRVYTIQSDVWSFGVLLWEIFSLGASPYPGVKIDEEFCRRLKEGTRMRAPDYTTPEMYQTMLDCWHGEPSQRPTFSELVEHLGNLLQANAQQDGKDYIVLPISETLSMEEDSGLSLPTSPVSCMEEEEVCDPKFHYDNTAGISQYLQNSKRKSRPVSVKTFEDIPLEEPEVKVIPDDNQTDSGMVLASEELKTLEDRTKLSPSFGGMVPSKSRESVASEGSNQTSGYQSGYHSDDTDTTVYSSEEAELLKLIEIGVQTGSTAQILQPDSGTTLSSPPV
# Vascular endothelial growth factor receptor 1, sequence (P17948 whole entry): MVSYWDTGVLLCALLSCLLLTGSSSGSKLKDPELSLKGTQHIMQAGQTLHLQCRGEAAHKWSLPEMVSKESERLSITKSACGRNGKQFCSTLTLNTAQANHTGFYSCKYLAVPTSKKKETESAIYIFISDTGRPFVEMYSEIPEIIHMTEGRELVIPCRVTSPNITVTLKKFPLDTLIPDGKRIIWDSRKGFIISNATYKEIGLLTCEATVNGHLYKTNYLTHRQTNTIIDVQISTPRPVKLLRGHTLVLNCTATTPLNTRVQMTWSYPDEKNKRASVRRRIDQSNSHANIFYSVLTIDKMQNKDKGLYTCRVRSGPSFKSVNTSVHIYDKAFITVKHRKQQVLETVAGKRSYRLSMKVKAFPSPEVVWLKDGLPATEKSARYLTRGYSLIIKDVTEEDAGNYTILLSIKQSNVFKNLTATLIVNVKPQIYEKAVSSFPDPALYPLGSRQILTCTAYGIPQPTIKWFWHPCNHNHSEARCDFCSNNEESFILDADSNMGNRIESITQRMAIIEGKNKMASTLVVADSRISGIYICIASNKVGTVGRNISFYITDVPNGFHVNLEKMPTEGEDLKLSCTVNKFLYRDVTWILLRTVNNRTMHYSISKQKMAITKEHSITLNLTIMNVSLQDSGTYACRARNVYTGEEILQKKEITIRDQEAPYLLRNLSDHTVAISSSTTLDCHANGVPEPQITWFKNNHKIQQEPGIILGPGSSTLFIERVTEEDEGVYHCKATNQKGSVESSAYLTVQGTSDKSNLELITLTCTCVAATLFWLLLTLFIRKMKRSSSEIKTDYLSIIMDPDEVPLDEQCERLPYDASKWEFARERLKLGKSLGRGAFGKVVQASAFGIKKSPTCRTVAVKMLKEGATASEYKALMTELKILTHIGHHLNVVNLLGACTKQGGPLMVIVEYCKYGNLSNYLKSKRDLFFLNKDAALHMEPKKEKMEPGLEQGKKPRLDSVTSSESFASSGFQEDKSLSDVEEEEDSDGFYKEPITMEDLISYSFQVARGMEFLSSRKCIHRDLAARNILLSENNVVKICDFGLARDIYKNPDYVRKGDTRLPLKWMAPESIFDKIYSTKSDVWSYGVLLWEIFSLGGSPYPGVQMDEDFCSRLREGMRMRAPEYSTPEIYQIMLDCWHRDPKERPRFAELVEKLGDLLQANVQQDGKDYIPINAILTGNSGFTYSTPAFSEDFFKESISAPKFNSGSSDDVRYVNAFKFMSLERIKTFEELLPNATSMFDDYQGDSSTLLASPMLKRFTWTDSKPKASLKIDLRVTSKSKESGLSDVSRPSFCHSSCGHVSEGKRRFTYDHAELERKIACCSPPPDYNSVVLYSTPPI
structure (smiles),measurement,setting,value
Cc1ccc(Nc2nccc(N(C)c3ccc4c(C)n(C)nc4c3)n2)cc1S(N)(=O)=O [PAZOPANIB],Activity,[1],Active
same,Activity,[2],Active
same,inhibition,[3],Active
same,Activity,[4],Active
same,Activity,[5],Active
same,Activity,[6],Active
same,Activity,[7],Active
same,IC50,[8],> 10 µM
same,Activity,[9],Active
same,Activity,[10],Active
same,Activity,[11],Active
same,Activity,[12],Active
same,Activity,[13],Active
same,Activity,[14],Active
same,Activity,[15],inactive
same,IC50,[16],> 10 µM
same,IC50,[17],> 10 µM
same,Activity,[18],Active
same,Activity,[19],Active
same,Activity,[20],Active
same,Activity,[21],Active
same,Activity,[22],Active
same,inhibition,[23],Active
same,IC50,[24],> 10 µM
same,Activity,[25],Active
same,Activity,[26],inactive
same,Activity,[27],Active
same,inhibition,[28],Active
same,Activity,[29],Active
same,inhibition,[30],Active
same,Activity,[31],Active
same,Activity,[32],Active
same,Activity,[33],Active

# — ChEMBL document CHEMBL5321287, “Discovery, Synthesis, and Evaluation of Novel Dual Inhibitors of a Vascular Endothelial Growth Factor Receptor and Poly(ADP-Ribose) Polymerase for BRCA Wild-Type Breast Cancer Therapy” (J Med Chem, 2023)
